Legend:
[1] = tested on: MCF7 cells; test: E2-stimulated MCF7 cell proliferation assay (8 day, DNA fluorescence); format: cell-based; settings: 10^-9 M E2, ligand 10^-11-10^-6 M, 8 day assay
Protocol: Assays evaluating the effects of SERDs and SERMs on cell proliferation were performed as described (Wardell et al., (2013) Clin Cancer Res 19 (9):2420-2431).
The ability of RAD1901 (FIG. 5A) to modulate the […] estradiol (E2) dependent transcriptional activity of the human estrogen receptor alpha (ESR1) and human estrogen receptor beta (ESR2) was assessed in transiently transfected SKBR3 cells using a synthetic reporter gene. […] For FIG. 5B, SKBR3 cells were plated in phenol red free media supplemented with charcoal stripped FBS (CFS) 24 hours prior to transfection with an ERE-luciferase reporter together with ESR1 or ESR2 expression vectors. 24 hours after transfection, cells were treated with E2 (10 nM) together with RAD1901 (10^−10-10^−6 M) for 24 hours prior to harvest and analysis of luciferase activity normalized to co-transfected β-galactosidase control. […] DNA content as assessed by fluorescence was measured as a surrogate for cell proliferation. The relative increase in DNA fluorescence was calculated by normalizing to baseline values detected in a duplicate plate of cells that was harvested on day 1 prior to the initial treatment. […] For FIG. 5F, expression of ESR1 target genes in tumors was analyzed essentially as in (C).

[2] = tested on: MCF7 xenograft tumors; test: MCF7 xenograft tumor study in estrogen-treated ovariectomized nu/nu mice; format: in vivo; settings: 20 mg/kg sc daily
Protocol: A total of 90 female Nu/Nu mice were ovariectomized and implanted subcutaneous simultaneously with an estrogen pellet (Innovative Research of America) releasing 0.72 mg estradiol (E2) over 60 days. 2 days later an approximately 6 mm^3 fragment of an MCF7 xenograft tumor (isolated from a recently sacrificed estrogen treated nu/nu mouse) was inserted subcutaneous into the axial mammary gland. Tumor growth (by caliper measurement) and animal body weight were monitored 3× weekly until tumor volume reached ˜0.2 cm^3. […] Treatments were formulated in sterile corn oil and were administered daily by subcutaneous injection. After 3 weeks of treatments, animals were euthanized and serum and tissues saved for analysis. FIG. 1B depicts tumor volume analyzed using non-linear curve fit and exponential growth calculation (Graphpad Prism), followed by two-way ANOVA and Bonferroni analysis.
Xenograft tumor analysis: Estrogen-stimulated MCF7 tumors were initiated in the axial mammary gland of 6-week old estrogen-treated (0.72 mg/60 days pellet sc, Innovative Research of America) ovariectomized female NU/NU mice (in-house colony) by serial transfer and were measured as described (Wardell et al., (2013) Clin Cancer Res 19 (9):2420-2431). […] Animal tissues were processed and analyzed as described (Wardell et al., (2013) Clin Cancer Res 19 (9):2420-2431).
The ability of RAD1901 (FIG. 5A) to modulate the […] estradiol (E2) dependent transcriptional activity of the human estrogen receptor alpha (ESR1) and human estrogen receptor beta (ESR2) was assessed in transiently transfected SKBR3 cells using a synthetic reporter gene. […] DNA content as assessed by fluorescence was measured as a surrogate for cell proliferation. The relative increase in DNA fluorescence was calculated by normalizing to baseline values detected in a duplicate plate of cells that was harvested on day 1 prior to the initial treatment. […] For FIG. 5F, expression of ESR1 target genes in tumors was analyzed essentially as in (C).

[3] = tested on: ESR1 target genes; test: ESR1 target gene expression profile in MCF7 cells; format: cell-based; settings: 24 hours
Protocol: A recent extensive microarray analysis has identified “sentinel” subsets of ER-responsive genes that can differentiate between ER agonists, SERMs and SERDs. […] MCF7 breast cancer cells were treated 24 hours with RAD1901 (0-1 μM) in the presence or absence of 17β-estradiol (1 nM). RNA isolation and the analysis of the expression of target genes Anterior gradient protein 2 (AGR2) and KCNK6 was conducted as in Example 3.
The expression of ESR1 target genes responsive to (FIG. 10A) agonists, (FIG. 10B) primarily SERMs, or (FIG. 10C) SERMs and agonists was analyzed as in FIG. 5. […] Significant target gene regulation (*p<0.05) as compared to the vehicle control was detected by 2 way ANOVA followed by Fisher's LSD (Graphpad Prism 6). […] Interaction of ESR1 with the Gal4DBD peptide constructs was detected through activation of a Gal4-responsive luciferase reporter construct and was normalized to detected β-galactosidase activity expressed in a constitutive manner using a second vector. Normalized response was expressed as fold increase over the detected level of interaction between Gal4DBD alone and ESR1-VP16 in the absence of ligand (Veh). For FIG. 10E, the effect of SERMs and SERDs (10^−6 M) on the proliferation of MCF7 cells in response to E2 (10^−9 M) or insulin (2×10^−9 M) was evaluated as in FIG. 5. […]

[4] = tested on: MCF7 cells; test: MCF7 proliferation in response to E2 or insulin; format: cell-based; settings: SERMs and SERDs 10^-6 M, insulin 2×10^-9 M
Protocol: The expression of ESR1 target genes responsive to (FIG. 10A) agonists, (FIG. 10B) primarily SERMs, or (FIG. 10C) SERMs and agonists was analyzed as in FIG. 5. Relative changes of these and additional target genes designed to evaluate dose dependent response to RAD1901 are presented in FIG. 11. Significant target gene regulation (*p<0.05) as compared to the vehicle control was detected by 2 way ANOVA followed by Fisher's LSD (Graphpad Prism 6). […] Triplicate wells of SKBR3 cells were transfected with plasmids expressing ESR1 fused to VP16 together with Gal4DBD alone (control) or Gal4DBD fused to ESR1 interacting peptides noted on the horizontal axis. Cells were then treated with the indicated ESR1 ligands (10^−7 M unless otherwise indicated). Interaction of ESR1 with the Gal4DBD peptide constructs was detected through activation of a Gal4-responsive luciferase reporter construct and was normalized to detected β-galactosidase activity expressed in a constitutive manner using a second vector. Normalized response was expressed as fold increase over the detected level of interaction between Gal4DBD alone and ESR1-VP16 in the absence of ligand (Veh). For FIG. 10E, the effect of SERMs and SERDs (10^−6 M) on the proliferation of MCF7 cells in response to E2 (10^−9 M) or insulin (2×10^−9 M) was evaluated as in FIG. 5. Statistically similar treatments (2-way ANOVA followed by Bonferroni comparison) are indicated by letters. […] The expression of ESR1 target genes responsive to (A) agonists, (B) primarily SERMs, or (C) SERMs and agonists was analyzed using RT qPCR following RNA isolation. mRNA expression was normalized (ΔΔCT analysis) to the similarly detected 36B4 housekeeping. The profiles presented in dendogram format were analyzed with the Ward hierarchical clustering algorithm (JMP 11) using standardized data.

CCNCCc1ccc(CN(CC)c2cc(OC)ccc2[C@@H]2CCc3cc(O)ccc3C2)cc1 [RAD1901, (R)-6-{2-{ethyl[4-(2-ethylaminoethyl)benzyl]amino}-4-methoxyphenyl}-5,6,7,8-tetrahydronaphthalen-2-ol]
E2-dependent stimulation of cell proliferation [1]: inhibited
E2-stimulated growth of MCF7 tumors [2]: inhibited E2-stimulated growth of the tumors with efficacy similar to tamoxifen
expression of ESR1-target genes PGR and FHL1 in treated tumors [2]: suppress the expression of the ESR1-target genes PGR and FHL1 to the same degree
regulation of ER transactivation of target genes AGR2 and KCNK6 ([3]; RAD1901 0-1 μM, presence or absence of 17β-estradiol 1 nM): dose dependent agonist/antagonist regulation
expression pattern of ESR1 target genes (agonist-, SERM-, SERM/agonist-responsive) ([3]; RAD1901 10^-9-10^-6 M): biphasic response
insulin-stimulated proliferation [4]: without effect

Source: US10420734B2, “Method of treating cancer using selective estrogen receptor modulators” (Duke University, priority 2014, dated 2019)
